In article PMC7395821 (Antiviral Research, 2020):

Experiments:
eGFP-JEV [1] = assay: eGFP-JEV-based HTS assay in Huh7 cells; assay type: cell-based, Japanese encephalitis virus; settings: 96-well, cytotoxic and false positive drugs excluded
eGFP-JEV [2] = assay: eGFP expression in eGFP-JEV infected BHK-21 cells; assay type: cell-based, Japanese encephalitis virus; settings: BHK-21, eGFP-JEV MOI 0.1, two-fold dilutions, maximum 3 μM, 72 hpi
Cytotoxicity assay = assay type: cell-based; settings: human, Huh7 cells
JEV genome RNA = assay: Real-time RT-PCR of viral RNA in WT-JEV infected Huh7 cells; assay type: cell-based, Japanese encephalitis virus; settings: WT-JEV MOI 0.5, various dosages, qRT-PCR at 48 hpi
WT-JEV [3] = assay: Antiviral assay of WT-JEV in Huh7 cells, viral titer by plaque assay; settings: for EC50: Japanese encephalitis virus, Huh-7, read-out: EC50 (50% reduction of viral titer); for SI (selective index, ratio of CC50 to EC50): Huh7 cells
WT-JEV [4] = assay: Time-of-addition assay; assay type: cell-based, Japanese encephalitis virus; settings: Huh7, WT-JEV MOI 10, 5 μM, titers at 12 hpi

SMILES	hit status after HTS and dose-dependent reconfirmation with eGFP-JEV (eGFP-JEV [1])	CC50 at 48 h (Cytotoxicity assay)	viral RNA copies (JEV genome RNA)	EC50 (WT-JEV [3])	also measured
OC(c1cc(C(F)(F)F)nc2c(C(F)(F)F)cccc12)C1CCCCN1 (centres unmarked) [Mefloquine]	potent inhibitor of JEV	–	–	–	–
C#C[C@@]1(O)[C@H](O)[C@@H](CO)O[C@H]1n1ccc2c(N)ncnc21 [NITD008]	–	–	–	–	effect on eGFP expression (eGFP-JEV [2]): dose-dependent inhibitory effects
CCCCCCCCCCCCCCCC[N+](C)(C)C [cetrimonium bromide]	newly discovered inhibitors of JEV	7.88 µM	decreased in a dose-dependent manner	2.23 µM	–
CCCCCCCCCCCCCCCC[n+]1ccccc1 [cetylpyridinium chlorid, cetylpyridinium chloride]	newly discovered inhibitors of JEV	–	decreased in a dose-dependent manner	–	–
Oc1c(Cl)cc(Cl)c(Cl)c1Cc1c(O)c(Cl)cc(Cl)c1Cl [hexachlorophene]	newly discovered inhibitors of JEV	10 µM	–	0.421 µM	SI (selective index, ratio of CC50 to EC50) (WT-JEV [3]): > 10
CCOC(=O)C1=C(C)NC(C)=C(C(=O)OCC)C1c1ccccc1/C=C/C(=O)OC(C)(C)C [lacidipine]	identified as hits	–	–	–	–
NC(=O)N1CCC(CC(=O)N2CCC([C@H]3c4ncc(Br)cc4CCc4cc(Cl)cc(Br)c43)CC2)CC1 [lonafarnib]	newly discovered inhibitors of JEV	11.4 µM	decreased in a dose-dependent manner	0.982 µM	effect on virus propagation, compound added pre-infection (-1 to 0 h) (WT-JEV [4]): no effect on virus propagation; reduction in viral titer, compound added during viral infection (0-1 h) (WT-JEV [4]): 60%; viral titers, compound added post infection (1, 2, 4, 6, 8 h) (WT-JEV [4]): significantly reduced; SI (selective index, ratio of CC50 to EC50) (WT-JEV [3]): > 10
COC(=O)C1=C(C)NC(C)=C(C(=O)OCCN2CCN(C(c3ccccc3)c3ccccc3)CC2)C1c1cccc([N+](=O)[O-])c1 (centres unmarked) [manidipine]	identified as hits	–	–	–	–
COc1c(C)c2c(c(O)c1C/C=C(\C)CCC(=O)O)C(=O)OC2 [mycophenolic acid]	identified as hits	–	–	–	–
O=[N+]([O-])c1ccc(O)c2ncccc12 [nitroxoline]	newly discovered inhibitors of JEV	9.29 µM	decreased in a dose-dependent manner	2.48 µM	–
CC[C@@H]1/C=C(\C)C[C@H](C)C[C@H](OC)[C@H]2O[C@@](O)(C(=O)C(=O)N3CCCC[C@H]3C(=O)O[C@H](/C(C)=C/[C@@H]3CC[C@H](Cl)[C@H](OC)C3)[C@H](C)[C@@H](O)CC1=O)[C@H](C)C[C@@H]2OC [pimecrolimus]	identified as hits	–	–	–	–
CC(C)OC(=O)[C@H](C)N[P@](=O)(OC[C@H]1O[C@@H](n2ccc(=O)[nH]c2=O)[C@](C)(F)[C@@H]1O)Oc1ccccc1 [sofosbuvir]	active	–	–	–	–
